ChEMBL document CHEMBL1147645, “Design and synthesis of 2,3,4,9-tetrahydro-1H-carbazole and 1,2,3,4-tetrahydro-cyclopenta[b]indole derivatives as non-nucleoside inhibitors of hepatitis C virus NS5B RNA-dependent RNA polymerase” (Bioorg Med Chem Lett, 2006)

Columns and labels:
[1] = biological target: RNA-directed RNA polymerase (Hepacivirus hominis, UniProt O39930); assay: Inhibition of HCV 1b BK NS5B RNA polymerase; set-up: species or system Hepatitis C virus (isolate BK)
[2] = Permeability at pH 7.4 by PAMPA assay; type: ADME; conditions: read-out: permeability
Huh-7 = assay: Cytotoxicity against Huh7 cells by MTS assay; type: functional, cell-based; conditions: Homo sapiens

Chain of RNA-directed RNA polymerase (O39930 whole entry): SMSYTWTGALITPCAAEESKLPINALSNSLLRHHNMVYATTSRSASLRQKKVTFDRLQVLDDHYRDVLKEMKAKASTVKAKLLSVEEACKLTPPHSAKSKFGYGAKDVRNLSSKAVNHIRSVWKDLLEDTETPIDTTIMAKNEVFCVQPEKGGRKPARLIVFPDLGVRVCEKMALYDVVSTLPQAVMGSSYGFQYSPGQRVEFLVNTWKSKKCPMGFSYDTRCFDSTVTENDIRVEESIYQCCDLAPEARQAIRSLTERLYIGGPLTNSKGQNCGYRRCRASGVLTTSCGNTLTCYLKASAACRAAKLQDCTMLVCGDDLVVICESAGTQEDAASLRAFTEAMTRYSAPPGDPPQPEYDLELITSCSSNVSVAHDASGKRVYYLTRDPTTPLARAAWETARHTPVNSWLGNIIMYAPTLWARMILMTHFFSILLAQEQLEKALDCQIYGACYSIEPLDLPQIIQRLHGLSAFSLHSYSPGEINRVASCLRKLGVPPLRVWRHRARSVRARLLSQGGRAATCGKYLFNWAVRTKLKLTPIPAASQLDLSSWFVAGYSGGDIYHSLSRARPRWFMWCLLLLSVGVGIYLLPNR

Compound | IC50 [1] [µM] | Papp [2] [×10⁻⁶ cm/s] | IC50 (Huh-7) [µM]
CCCC1(CC(=O)O)CCCc2c1[nH]c1c(C#N)ccc(C#N)c21 (centres undefined) | 2.3 | – | –
CCCC1(CC(=O)O)CCCc2c1[nH]c1c(F)c(F)ccc21 (centres undefined) | > 33 | – | –
CCCC1(CC(=O)O)CCCc2c1[nH]c1cc(F)cc(F)c21 (centres undefined) | 30 | – | –
CCCC1(C(=O)O)CCc2c1[nH]c1c(C)cc(F)c(C#N)c21 (centres undefined) | 1.8 | – | –
CCCCC1(C(=O)O)CCc2c1[nH]c1c(C)ccc(C#N)c21 (centres undefined) | 4.6 | – | –
CCCC1(CC(=O)O)OCCc2c1[nH]c1c(C)ccc(C#N)c21 (centres undefined) | 0.33 | – | –
CCCC1(CC(=O)O)CCCc2c1[nH]c1ccccc21 (centres undefined) | > 33 | – | –
CCCC1(CC(=O)O)CCCc2c1[nH]c1c(C)ccc(C#N)c21 (centres undefined) | 2.1 | – | –
C=CCC1(C(=O)O)CCc2c1[nH]c1c(C)cc(F)c(C#N)c21 (centres undefined) | 6.3 | – | –
CCCC1(C(=O)O)CCc2c1[nH]c1c(F)ccc(C#N)c21 (centres undefined) | 8.1 | – | –
CCCCC1(C(=O)O)CCc2c1[nH]c1c(C)cc(F)c(C#N)c21 (centres undefined) | 1.5 | – | –
CCCCC1(C(=O)O)CCc2c1[nH]c1c(Cl)ccc(Cl)c21 (centres undefined) | 1.9 | – | –
C=CCC1(C(=O)O)CCc2c1[nH]c1c(Cl)ccc(Cl)c21 (centres undefined) | 1.2 | – | –
CCCC1(C(=O)O)CCCc2c1[nH]c1c(C)ccc(C#N)c21 (centres undefined) | 15 | – | –
CCCC1(CC(=O)O)CCCc2c1[nH]c1ccc(Cl)cc21 (centres undefined) | > 33 | – | –
CCCC1(CC(=O)O)CCCc2c1[nH]c1c(Cl)cc(Br)cc21 (centres undefined) | > 33 | – | –
CCCC1(C(=O)O)CCc2c1[nH]c1c(C)ccc(C#N)c21 (centres undefined) | 4.7 | – | –
CCCC1(C(=O)O)CCCc2c1[nH]c1c(Cl)ccc(C(F)(F)F)c21 (centres undefined) | 5.8 | – | –
CCCC1(C(=O)O)CCCc2c1[nH]c1c(F)ccc(C#N)c21 (centres undefined) | 10 | – | –
CCCC1(C(=O)O)CCCc2c1[nH]c1c(Cl)ccc(Cl)c21 (centres undefined) | 3.2 | – | –
CCCC1(CC(=O)O)CCCc2c1[nH]c1c(F)ccc(F)c21 (centres undefined) | > 33 | – | –
C=CCC1(C(=O)O)CCc2c1[nH]c1c(C)ccc(C#N)c21 (centres undefined) | 11 | – | –
CCCC1(CC(=O)O)CCCc2c1[nH]c1c(F)ccc(C#N)c21 (centres undefined) | 2 | – | –
C=CCC1(C(=O)O)CCc2c1[nH]c1c(F)ccc(C#N)c21 (centres undefined) | 14.5 | – | –
CCCC1(CC(=O)O)CCCc2c1[nH]c1c(C(N)=O)ccc(C#N)c21 (centres undefined) | > 33 | – | –
CCCCC1(C(=O)O)CCc2c1[nH]c1c(F)ccc(C#N)c21 (centres undefined) | 5.4 | – | –
CCCC1(C(=O)O)CCc2c1[nH]c1c(Cl)ccc(Cl)c21 (centres undefined) | 0.55 | 6.48 | 43
